Source: PubChem BioAssay (NCI)
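Where inhibition never reached the appropriate level, the endpoint shown equals the highest concentration tested. Otherwise, values were interpolated linearly from a five-concentration, 48-hour dose response in 96-well plates. TGI denotes the concentration required for complete inhibition of growth.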 Peptide text beside a SMILES is read from it. * marks the point of attachment. X34 = O=C(c1ccc(-c2ccc(Cl)cc2Cl)o1)*

Key:
Test in all cases: growth of human tumour cells (NCI), 48 h
[1] = tested on: NCI-H522 lung
[2] = tested on: RXF 393 renal
[3] = tested on: COLO 205 colon
[4] = tested on: HCT-15 colon
[5] = tested on: HCC-2998 colon
[6] = tested on: SK-MEL-5 melanoma
[7] = tested on: MDA-MB-231 breast
[8] = tested on: HS 578T breast
[9] = tested on: RPMI-8226 leukemia
[10] = tested on: UACC-62 melanoma

Structure (SMILES) | TGI [1] [µM] | TGI [2] [µM] | TGI [3] [µM] | TGI [4] [µM] | TGI [5] [µM] | TGI [6] [µM] | TGI [7] [µM] | TGI [8] [µM] | TGI [9] [µM] | TGI [10] [µM]
CC(ON1[C@](C)(c2ccccc2)CC[C@@]1(C)c1ccccc1)c1ccccc1 (some centres not stated) | 50.3 | 46 | > 100 | > 100 | 52.6 | > 100 | > 100 | > 100 | 58.2 | 
CCOc1ccccc1Nc1ccc(N)cc1S(=O)(=O)O | > 100 | > 100 |  | > 100 | > 100 | > 100 | > 100 | > 100 |  | > 100
O=Cc1ccccc1CCn1c(=O)c2cc3c(=O)n(CCc4ccccc4C=O)c(=O)c3cc2c1=O | > 100 | > 100 |  | > 100 |  | > 100 |  |  |  | > 100
COC(=O)C(CC(C)C)NC(=O)C(Cc1ccccc1)NC(=O)C1CCCN1C(=O)C(CO)NC(=O)c1ccc(-c2ccc(Cl)cc2Cl)o1 (configuration not stated) (X34-SPFL-OMe; configuration not given here) | > 100 | 44.7 | 30.8 | 72.6 | 27.4 | 35.2 | 32.3 | > 100 | 44.2 | > 100
CCOc1cc(C2SCC(=O)N2c2ccc3c(c2)Oc2c(Cl)c4c(c(Cl)c2=N3)Oc2cc(N3C(=O)CSC3c3ccc(O)c(OCC)c3)ccc2N=4)ccc1O (configuration not stated) | > 100 | 58.9 |  | > 100 | > 100 | > 100 | > 100 | > 100 | > 100 | 
COc1ccc(C(=O)CCN(C)C)c2ccccc12 | 21.9 | 41.9 | 36.6 | 48.7 | 36 | > 100 | 35.6 | 57 | 4.44 | > 58.1
Cn1c2ccccc2c2c3c(c4c5ccccc5n(C5OC(CO)C(O)C(O)C5O)c4c21)C(=O)OC3=O (configuration not stated) | > 100 | > 100 | > 100 | > 100 | > 100 | > 100 | > 100 | > 100 | > 100 | > 100
CC[C@@H]1CSC(/C=C/C2OC3OC(C)(C)OC3C3OC(C)(C)OC23)=N1 (some centres not stated) | 12.1 | 9.59 | 18 | 15.3 | 12.7 | 20 | 25.7 | 75.2 | 32.5 | 26.8
COc1cc(NC(C)=O)ccc1C(=O)N/N=C/c1ccco1 | > 100 | > 100 | > 100 | > 100 |  | > 100 |  | > 100 | > 100 | > 100
OCC(O)COCn1cc(Cn2ncc3c(NCc4ccccc4)ncnc32)nn1 (configuration not stated) | 33.4 |  | > 100 | > 100 | > 100 | > 100 | > 100 | 47.9 | > 100 | > 100
CC(C)CNCCc1ccccn1 | > 100 | > 100 | > 100 | > 100 | > 100 | > 100 | > 100 | > 100 |  | > 100
Nc1ncnc2c1ncn2[C@@H]1O[C@H](COP(=O)(O)OP(=O)(O)OC[C@H]2O[C@@H](OCCCO)[C@H](O)[C@@H]2O)[C@@H](O)[C@H]1O | > 100 | > 100 | > 100 | > 100 | > 100 | > 100 | > 100 | > 100 | > 100 | > 100
CC1(O)C2(c3ccccc3)CCC[N+]1(C)CC2 (configuration not stated) |  | > 100 | > 100 | > 100 | > 100 | > 100 | > 100 | > 100 | > 100 | > 100
CC(C)C1=CC2=CC[C@@H]3[C@](C)(CCC[C@@]3(C)C(=O)O)[C@H]2CC1 | > 100 | 97.4 | 71.9 | > 87 | > 100 | > 94.2 |  |  | > 79.7 | 68.3
COc1ccc(C(=O)c2nc3ccccc3nc2N2CCN(c3ccccc3)CC2)cc1OC | > 100 | > 100 | > 100 | > 100 | > 100 | > 100 |  | > 100 | > 100 | > 100
C1=CC=C2NCCc3cccc(c3)CCNC3=CC=CC=CC3=NCCCCCCN=C2C=C1 | 47.2 | 32.4 | 38.8 | 56.3 |  |  |  |  | 31.1 | 50.7
O=C1NC(=NCc2ccc(F)cc2)N/C1=C\c1ccccc1Cl | 30.4 | 48.2 | 37.5 | 71.2 | > 100 | 33.6 | 41.8 | > 100 |  | 29.8
CCCCC(=O)c1c(O)ccc2c(C)cc(=O)oc12 | > 100 | > 100 | > 100 | > 100 | > 100 | > 100 | > 100 | > 100 | > 100 | > 100
